This note sets out measurements from patent US9718819B2 (Merck Sharp & Dohme Corp., priority 2012, dated 2017).

For this assay, the target named is HIV-1 RT wild-type enzyme (Human immunodeficiency virus type 1 group M subtype B (isolate HXB2) (HIV-1), UniProt P04585). Put plainly: HIV-1 reverse transcriptase inhibitory activity (RT polymerase assay). The assay is classed as biochemical. To be noted: HIV-1 RT wild-type enzyme 83 pM; RNA-dependent DNA polymerase activity; read-out: IC50. On the procedure:
Determination of HIV-1 Reverse Transcriptase Inhibitory Activity
The heterodimeric nucleic acid substrate used in the HIV-1 RT polymerase reactions was generated by annealing the DNA primer, biotinylated pD500 (Sigma Aldrich, USA, 5′-biotin-ttg aaa tga ctg cgg tac ggc-3′), SEQ ID NO. 1 to the nucleotide RNA template t500 (derived from hepatitis C virus [HCV] sequence, IBA, Germany, 5′-[…]-3′), SEQ ID NO 2). […] The mixture was then preincubated on an orbital shaker for 30 min at room temperature in microtiter plates (Costar 3365, Corning, USA). A polymerization reaction was initiated by the addition of RNA template/pD500 DNA primer hybrid (16.6 nM final of RNA/DNA hybrid) and dNTPs (2 μM dATP, dGTP, dCTP and 66.6 nM Ru-dUTP (Meso Scale Discovery, USA)). Plate was sealed and incubated for 5-10 min at room temperature on an orbital shaker. Plate was then incubated for 90 min at 37° C. and reactions quenched with 60 μl quenching buffer (50 mM EDTA, 0.7% BSA, 0.7% Tween-20, 0.017% sodium azide in PBS). The resulting solution was incubated at room temperature for an additional 5 min and then 50 μL was transferred to pre-blocked Avidin plates (L15AA, Meso Scale Discovery). Each well of Avidin plate was blocked for 1 h at room temperature with 100 μL 5% BSA in PBS. Blocking solution was removed by tapping vigorously on filter paper to remove all excess liquid. Reaction on pre-blocked avidin plate proceeded for 60 min at room temperature and then contents removed by tapping vigorously on filter paper to remove all excess liquid. After washing plate 3 times with 150 μL 1×PBS and blotting dry between cycles, 150 μL 1× Read Buffer T (4× Read Buffer T, Meso Scale Discovery) was added and incubated for 5 min at room temperature before counting on a Sector Imager […] (Meso Scale Discovery). Titration curves and IC50 values were calculated using a four parameter logisitc fit according to standard procedures. Briefly, % Inhibition=100×((sample raw value)−(mean value of the low control or 0% inhibition))/((mean value of wells representing 100% inhbition)−(mean value of 0% inhbition)). In this assay, low control wells contain DMSO (0% inhbition) and 100% inhibition wells contain 1 μM efavirenz.
For orientation: IC50 means the concentration at which inhibition is half-maximal. Take `N#Cc1cc(Cl)cc(Oc2c(C(F)(F)F)ncn(Cc3cc(-c4cccc(Cl)c4F)c(=O)[nH]n3)c2=O)c1` [Example 43, 3-chloro-5-((1-((5-(3-chloro-2-fluorophenyl)-6-oxo-1,6-dihydropyridazin-3-yl)methyl)-6-oxo-4-(trifluoromethyl)-1,6-dihydropyrimidin-5-yl)oxy)benzonitrile]: the IC50 is 9 nM.
For the compound `COc1cccc(-c2cc(Cn3cnc(C(F)(F)F)c(Oc4cc(Cl)cc(C#N)c4)c3=O)n[nH]c2=O)c1F` [Example 44, 3-chloro-5-((1-((5-(2-fluoro-3-methoxyphenyl)-6-oxo-1,6-dihydropyridazin-3-yl)methyl)-6-oxo-4-(trifluoromethyl)-1,6-dihydropyrimidin-5-yl)oxy)benzonitrile], the concentration for half-maximal inhibition (IC50) stood at 4 nM.
On to `COc1ccc(-c2cc(Cn3cnc(C(F)(F)F)c(Oc4cc(Cl)cc(C#N)c4)c3=O)n[nH]c2=O)c(F)c1` [Example 45, 3-chloro-5-((1-((5-(2-fluoro-4-methoxyphenyl)-6-oxo-1,6-dihydropyridazin-3-yl)methyl)-6-oxo-4-(trifluoromethyl)-1,6-dihydropyrimidin-5-yl)oxy)benzonitrile], for which the IC50 amounted to 6 nM.
`N#Cc1cc(Cl)cc(Oc2c(C(F)(F)F)ncn(Cc3cc(-c4ccc(Cl)c(F)c4)c(=O)[nH]n3)c2=O)c1` [Example 46, 3-chloro-5-((1-((5-(4-chloro-3-fluorophenyl)-6-oxo-1,6-dihydropyridazin-3-yl)methyl)-6-oxo-4-(trifluoromethyl)-1,6-dihydropyrimidin-5-yl)oxy)benzonitrile]: the 50% inhibitory concentration (IC50) came out at 5 nM.
With `N#Cc1cc(Cl)cc(Oc2c(C(F)(F)F)ncn(Cc3cc(-c4cc(Cl)ccc4F)c(=O)[nH]n3)c2=O)c1` [Example 47, 3-chloro-5-((1-((5-(5-chloro-2-fluorophenyl)-6-oxo-1,6-dihydropyridazin-3-yl)methyl)-6-oxo-4-(trifluoromethyl)-1,6-dihydropyrimidin-5-yl)oxy)benzonitrile], the IC50 was 11 nM.
The value for `N#Cc1cc(Cl)cc(Oc2c(C(F)(F)F)ncn(Cc3cc(-c4cc(F)ccc4F)c(=O)[nH]n3)c2=O)c1` [Example 48, 3-chloro-5-((1-((5-(2,5-difluorophenyl)-6-oxo-1,6-dihydropyridazin-3-yl)methyl)-6-oxo-4-(trifluoromethyl)-1,6-dihydropyrimidin-5-yl)oxy)benzonitrile] was 9 nM; that for `Cc1ccc(F)cc1-c1cc(Cn2cnc(C(F)(F)F)c(Oc3cc(Cl)cc(C#N)c3)c2=O)n[nH]c1=O` [Example 50] was 165 nM; that for `COc1cccc(F)c1-c1cc(Cn2cnc(C(F)(F)F)c(Oc3cc(Cl)cc(C#N)c3)c2=O)n[nH]c1=O` [Example 51, 3-chloro-5-((1-((5-(2-fluoro-6-methoxyphenyl)-6-oxo-1,6-dihydropyridazin-3-yl)methyl)-6-oxo-4-(trifluoromethyl)-1,6-dihydropyrimidin-5-yl)oxy)benzonitrile] was 358 nM.
On to `COc1ccc(-c2cc(Cn3cnc(C(F)(F)F)c(Oc4cc(Cl)cc(C#N)c4)c3=O)n[nH]c2=O)cc1F` [Example 52, 3-chloro-5-((1-((5-(3-fluoro-4-methoxyphenyl)-6-oxo-1,6-dihydropyridazin-3-yl)methyl)-6-oxo-4-(trifluoromethyl)-1,6-dihydropyrimidin-5-yl)oxy)benzonitrile], for which the IC50 stood at 4 nM.
The value for `CC(C)(C)c1ccc(-c2cc(Cn3cnc(C(F)(F)F)c(Oc4cc(Cl)cc(C#N)c4)c3=O)n[nH]c2=O)cc1` [Example 53, 3-((1-((5-(4-(tert-butyl)phenyl)-6-oxo-1,6-dihydropyridazin-3-yl)methyl)-6-oxo-4-(trifluoromethyl)-1,6-dihydropyrimidin-5-yl)oxy)-5-chlorobenzonitrile] was 70 nM; that for `N#Cc1cc(Cl)cc(Oc2c(C(F)(F)F)ncn(Cc3cc(-c4cccc(C#N)c4)c(=O)[nH]n3)c2=O)c1` [Example 54, 3-chloro-5-((1-((5-(3-cyanophenyl)-6-oxo-1,6-dihydropyridazin-3-yl)methyl)-6-oxo-4-(trifluoromethyl)-1,6-dihydropyrimidin-5-yl)oxy)benzonitrile] was 8 nM.
For `N#Cc1cc(Cl)cc(Oc2c(C(F)(F)F)ncn(Cc3cc(-c4cc(F)c(F)c(F)c4)c(=O)[nH]n3)c2=O)c1` [Example 55, 3-chloro-5-((6-oxo-1-((6-oxo-5-(3,4,5-trifluorophenyl)-1,6-dihydropyridazin-3-yl)methyl)-4-(trifluoromethyl)-1,6-dihydropyrimidin-5-yl)oxy)benzonitrile], the IC50 was 11 nM.
Regarding `Cc1cc(F)ccc1-c1cc(Cn2cnc(C(F)(F)F)c(Oc3cc(Cl)cc(C#N)c3)c2=O)n[nH]c1=O` [Example 56, 3-chloro-5-((1-((5-(4-fluoro-2-methylphenyl)-6-oxo-1,6-dihydropyridazin-3-yl)methyl)-6-oxo-4-(trifluoromethyl)-1,6-dihydropyrimidin-5-yl)oxy)benzonitrile], the IC50 is 76 nM.
The value for `N#Cc1cc(Cl)cc(Oc2c(C(F)(F)F)ncn(Cc3cc(-c4cccc5c4OCC5)c(=O)[nH]n3)c2=O)c1` [Example 57, 3-chloro-5-((1-((5-(2,3-dihydrobenzofuran-7-yl)-6-oxo-1,6-dihydropyridazin-3-yl)methyl)-6-oxo-4-(trifluoromethyl)-1,6-dihydropyrimidin-5-yl)oxy)benzonitrile] was 11 nM; that for `Cc1ccc(-c2cc(Cn3cnc(C(F)(F)F)c(Oc4cc(Cl)cc(C#N)c4)c3=O)n[nH]c2=O)cc1F` [Example 58, 3-chloro-5-((1-((5-(3-fluoro-4-methylphenyl)-6-oxo-1,6-dihydropyridazin-3-yl)methyl)-6-oxo-4-(trifluoromethyl)-1,6-dihydropyrimidin-5-yl)oxy)benzonitrile] was 4 nM.
Then `COc1ccc(F)cc1-c1cc(Cn2cnc(C(F)(F)F)c(Oc3cc(Cl)cc(C#N)c3)c2=O)n[nH]c1=O` [Example 59, 3-chloro-5-((1-((5-(5-fluoro-2-methoxyphenyl)-6-oxo-1,6-dihydropyridazin-3-yl)methyl)-6-oxo-4-(trifluoromethyl)-1,6-dihydropyrimidin-5-yl)oxy)benzonitrile], with 125 nM.
The value for `Cc1cc(F)cc(-c2cc(Cn3cnc(C(F)(F)F)c(Oc4cc(Cl)cc(C#N)c4)c3=O)n[nH]c2=O)c1` [Example 60, 3-chloro-5-((1-((5-(3-fluoro-5-methylphenyl)-6-oxo-1,6-dihydropyridazin-3-yl)methyl)-6-oxo-4-(trifluoromethyl)-1,6-dihydropyrimidin-5-yl)oxy)benzonitrile] was 7 nM.
Turning to `COc1cc(F)cc(-c2cc(Cn3cnc(C(F)(F)F)c(Oc4cc(Cl)cc(C#N)c4)c3=O)n[nH]c2=O)c1` [Example 61, 3-chloro-5-((1-((5-(3-fluoro-5-methoxyphenyl)-6-oxo-1,6-dihydropyridazin-3-yl)methyl)-6-oxo-4-(trifluoromethyl)-1,6-dihydropyrimidin-5-yl)oxy)benzonitrile], the IC50 came to 11 nM.
Turning to `N#Cc1cc(Cl)cc(Oc2c(C(F)(F)F)ncn(Cc3cc(-c4ccc(F)c(F)c4F)c(=O)[nH]n3)c2=O)c1` [Example 62, 3-chloro-5-((6-oxo-1-((6-oxo-5-(2,3,4-trifluorophenyl)-1,6-dihydropyridazin-3-yl)methyl)-4-(trifluoromethyl)-1,6-dihydropyrimidin-5-yl)oxy)benzonitrile], the concentration for half-maximal inhibition (IC50) came to 10 nM.
The value for `COc1ccc(F)c(-c2cc(Cn3cnc(C(F)(F)F)c(Oc4cc(Cl)cc(C#N)c4)c3=O)n[nH]c2=O)c1` [Example 63, 3-chloro-5-((1-((5-(2-fluoro-5-methoxyphenyl)-6-oxo-1,6-dihydropyridazin-3-yl)methyl)-6-oxo-4-(trifluoromethyl)-1,6-dihydropyrimidin-5-yl)oxy)benzonitrile] was 10 nM; that for `N#Cc1cc(Cl)cc(Oc2c(C(F)(F)F)ncn(Cc3cc(-c4ccc5c(c4)CCO5)c(=O)[nH]n3)c2=O)c1` [Example 64, 3-chloro-5-((1-((5-(2,3-dihydrobenzofuran-5-yl)-6-oxo-1,6-dihydropyridazin-3-yl)methyl)-6-oxo-4-(trifluoromethyl)-1,6-dihydropyrimidin-5-yl)oxy)benzonitrile] was 3 nM; that for `N#Cc1cc(Cl)cc(Oc2c(C(F)(F)F)ncn(Cc3cc(-c4ccn[nH]4)c(=O)[nH]n3)c2=O)c1` [Example 65, 3-chloro-5-((6-oxo-1-((6-oxo-5-(1H-pyrazol-5-yl)-1,6-dihydropyridazin-3-yl)methyl)-4-(trifluoromethyl)-1,6-dihydropyrimidin-5-yl)oxy)benzonitrile] was 5 nM.
